The subject of experiment [1] is T1, FMO (flavin-containing monooxygenase).
T1 construct: gene Fmo1; native, homogenate of cultured thoracic aortic endothelial cells; FMO isoform not resolved
The experiment in a line: imipramine N-oxide formation in cell homogenate, HPLC-UV. Format: biochemical, Rattus norvegicus. The settings on record: NADPH-regenerating system, pH 7.4, 37 °C, apparent Km, FMO isoform unresolved. From the text:
imipramine N-oxide formation in cell homogenate, HPLC-UV on FMO (flavin-containing monooxygenase)

The test system of experiment [2] is CYP2C11 and CYP3A2. As to conditions: read-out: K m (μmol/L); NADPH-regenerating system; pH 7.4; 37 °C; apparent Km; homogenate, mixed CYPs assigned by anti-CYP antibodies. An excerpt:
desipramine (N-demethylate) formation in cell homogenate, HPLC-UV on CYP2C11 and CYP3A2

Experiment [3] concerns T1, FMO (flavin-containing monooxygenase). As to the kind of experiment: inhibition of imipramine N-oxidation in cell homogenate, HPLC-UV. Format: biochemical, Rattus norvegicus. As to conditions: competitive with imipramine, methimazole 1 μmol/L, NADPH-regenerating system, 37 °C, FMO isoform unresolved, read-out: apparent K i.

As for `CN(C)CCCN1c2ccccc2CCc2ccccc21` [imipramine], the Km in experiment [1] stood at 20 ± 4.5 µM; in experiment [2], 39.9 ± 5.3 µmol/L.
For the compound `Cn1cc[nH]c1=S` [methimazole], the Ki in experiment [3] came to 800 nM.

(Values after article PMC4062819, “N-Demethylation and N-oxidation of imipramine in rat thoracic aortic endothelial cells” (In Vitro Cellular & Developmental Biology. Animal, 2014).)
